Measurements from patent publication US20240246977A1, “DEGRADATION OF BRUTON'S TYROSINE KINASE (BTK) BY CONJUGATION OF BTK INHIBITORS WITH E3 LIGASE LIGAND AND METHOD OF USE” (BeiGene Switzerland GmbH, priority 2021, published 2024).

Tests used:
HEK-293 cells = assay: HEK-293 cytotoxicity detection (CellTiter-Glo); format: cell-based; conditions: Homo sapiens, 72 h, 72 h incubation, CellTiter-Glo luminescence, read-out: HEK293
Outline: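 HEK-293 cells exposed 72 h to 8 compounds doses (4-fold dilutions, top stock 5 mM at 500×) in 0.2% DMSO. Viability by CellTiter-Glo luminescence; inhibition normalised to DMSO high control and low control, IC50 from four-parameter curve fit.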

BTK = BTK (Homo sapiens, UniProt Q06187); assay: BTK cell degradation in TMD-8 cells, HTRF assay; format: cell-based; parameters: endogenous in cells; host or cells: TMD-8 cells; conditions: 6 h treatment, IC50 (DC50) of BTK degradation
Outline: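 TMD-8 cells treated 6 h with 8-dose series (6-fold dilutions, 0.2% DMSO final), then lysed and BTK quantified by HTRF (337/665/620 nm) after overnight antibody incubation at room temperature. Degradation normalized to DMSO high and low controls; DC50 and Dmax from four-parameter fit.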

Chain of BTK (Q06187 whole entry): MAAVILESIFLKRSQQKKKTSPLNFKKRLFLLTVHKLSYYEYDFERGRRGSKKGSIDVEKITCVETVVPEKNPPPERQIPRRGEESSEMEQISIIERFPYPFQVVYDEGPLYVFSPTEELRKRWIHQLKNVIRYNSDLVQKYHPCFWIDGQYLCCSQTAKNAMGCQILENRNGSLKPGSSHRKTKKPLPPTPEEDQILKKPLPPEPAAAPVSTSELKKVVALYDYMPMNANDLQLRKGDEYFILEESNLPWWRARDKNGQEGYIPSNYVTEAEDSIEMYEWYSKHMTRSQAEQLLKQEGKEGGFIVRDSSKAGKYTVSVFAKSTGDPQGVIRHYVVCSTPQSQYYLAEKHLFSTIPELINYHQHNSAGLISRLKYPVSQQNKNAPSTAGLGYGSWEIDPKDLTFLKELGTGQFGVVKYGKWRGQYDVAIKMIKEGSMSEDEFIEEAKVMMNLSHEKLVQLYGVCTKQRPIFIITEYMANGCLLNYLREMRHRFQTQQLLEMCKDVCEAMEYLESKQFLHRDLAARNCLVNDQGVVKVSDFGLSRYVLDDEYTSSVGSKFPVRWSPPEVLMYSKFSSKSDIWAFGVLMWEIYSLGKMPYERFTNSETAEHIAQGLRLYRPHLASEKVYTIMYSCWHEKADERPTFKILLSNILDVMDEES

## Cc1c(C(=O)Nc2cc(N3CCCC3)ccn2)ccc(-c2nn3c(c2C(N)=O)Nc2ccc(N4CCN(CC5CCN(c6ccc(N7CCC(=O)NC7=O)cc6)CC5)CC4)cc2CC3)c1F [Example B49, 7-(4-((1-(4-(2,4-dioxotetrahydropyrimidin-1(2H)-yl)phenyl)piperidin-4-yl)methyl)piperazin-1-yl)-2-(2-fluoro-3-methyl-4-((4-(pyrrolidin-1-yl)pyridin-2-yl)carbamoyl)phenyl)-9,10-dihydro-4H-benzo[d]pyrazolo[1,5-a][1,3]diazepine-3-carboxamide]
HEK-293 cells
  IC50: > 10000 nM
BTK
  DC50: 13.5 nM

## NC(=O)c1c(-c2ccc(Oc3ccccc3)cc2)nn2c1Nc1ccc(C(=O)N3CCC(CN4CCN(c5cc6c(cc5F)C(=O)N(C5CCC(=O)NC5=O)C6=O)CC4)CC3)cc1CC2 (centres unmarked) [Example A14, 7-(4-((4-(2-(2,6-dioxopiperidin-3-yl)-6-fluoro-1,3-dioxoisoindolin-5-yl)piperazin-1-yl)methyl)piperidine-1-carbonyl)-2-(4-phenoxyphenyl)-9,10-dihydro-4H-benzo[d]pyrazolo[1,5-a][1,3]diazepine-3-carboxamide]
HEK-293 cells
  IC50: 509 nM
BTK
  DC50: 3.22 nM

## CCOc1ccnc(NC(=O)c2ccc(-c3nn4c(c3C(N)=O)Nc3ccc(N5CCN(CC6CCN(c7ccc(N8CCC(=O)NC8=O)cc7)CC6)CC5)cc3CC4)c(F)c2C)c1 [Example B51, 7-(4-((1-(4-(2,4-dioxotetrahydropyrimidin-1(2H)-yl)phenyl)piperidin-4-yl)methyl)piperazin-1-yl)-2-(4-((4-ethoxypyridin-2-yl)carbamoyl)-2-fluoro-3-methylphenyl)-9,10-dihydro-4H-benzo[d]pyrazolo[1,5-a][1,3]diazepine-3-carboxamide]
HEK-293 cells
  IC50: 290 nM
BTK
  DC50: 7.39 nM

## Cc1cc(-c2nn3c(c2C(N)=O)Nc2ccc(N4CCN(CC5CCN(c6ccc(N7CCC(=O)NC7=O)cc6)CC5)CC4)cc2CC3)ccc1CNC(=O)c1ccn(C(C)(C)C)n1 [Example C9, 2-(4-((1-(tert-butyl)-1H-pyrazole-3-carboxamido)methyl)-3-methylphenyl)-7-(4-((1-(4-(2,4-dioxotetrahydropyrimidin-1(2H)-yl)phenyl)piperidin-4-yl)methyl)piperazin-1-yl)-9,10-dihydro-4H-benzo[d]pyrazolo[1,5-a][1,3]diazepine-3-carboxamide]
HEK-293 cells
  IC50: > 10000 nM
BTK
  DC50: 54.2 nM

## COc1cc(F)ccc1C(=O)NCc1ccc(-c2nn3c(c2C(N)=O)Nc2ccc(N4CCN(CC5CCN(c6ccc(N7CCC(=O)NC7=O)cc6)CC5)CC4)cc2CC3)cc1C [Example C41, 7-(4-((1-(4-(2,4-dioxotetrahydropyrimidin-1(2H)-yl)phenyl)piperidin-4-yl)methyl)piperazin-1-yl)-2-(4-((4-fluoro-2-methoxybenzamido)methyl)-3-methylphenyl)-9,10-dihydro-4H-benzo[d]pyrazolo[1,5-a][1,3]diazepine-3-carboxamide]
HEK-293 cells
  IC50: > 10000 nM
BTK
  DC50: 9.74 nM

## NC(=O)c1c(-c2ccc(C(=O)Nc3cc(C(F)(F)F)ccn3)cc2)nn2c1Nc1ccc(N3CCN(CC4CCN(c5ccc(N6CCC(=O)NC6=O)cc5)CC4)CC3)cc1CC2 [Example B12, 7-(4-((1-(4-(2,4-dioxotetrahydropyrimidin-1(2H)-yl)phenyl)piperidin-4-yl)methyl)piperazin-1-yl)-2-(4-((4-(trifluoromethyl)pyridin-2-yl)carbamoyl)phenyl)-9,10-dihydro-4H-benzo[d]pyrazolo[1,5-a][1,3]diazepine-3-carboxamide]
HEK-293 cells
  IC50: > 10000 nM
BTK
  DC50: 5.82 nM

## Cc1c(C(=O)Nc2ncn(C)n2)ccc(-c2nn3c(c2C(N)=O)Nc2ccc(N4CCN(CC5CCN(c6ccc(N7CCC(=O)NC7=O)cc6)CC5)CC4)cc2CC3)c1F [Example B84, 7-(4-((1-(4-(2,4-dioxotetrahydropyrimidin-1(2H)-yl)phenyl)piperidin-4-yl)methyl)piperazin-1-yl)-2-(2-fluoro-3-methyl-4-((1-methyl-1H-1,2,4-triazol-3-yl)carbamoyl)phenyl)-9,10-dihydro-4H-benzo[d]pyrazolo[1,5-a][1,3]diazepine-3-carboxamide]
HEK-293 cells
  IC50: > 10000 nM
BTK
  DC50: 2.32 nM
